Values quoted from earlier work, collected in US6153738A (priority 1999, dated 2000).

System: Swiss Webster mice
Conditions: mouse, in vivo

## GCX1 X2 EPWC [contryphan-R]
  symptomatology after intracranial injection into mice: stiff-tail syndrome
